The record followed here is patent publication US10323016B2, “Imidazol- or 1,2,4-triazol-derivatives and their use” (UNIVERSITE DE LILLE 2 DROIT ET SANTE, priority 2014, dated 2019).

The target of one assay is hTGR5 (Homo sapiens (Human), UniProt Q8TDU6). Nature of the assay: TGR5/CRE Luciferase Assay (hTGR5). In kind it is cell-based. As to conditions: for EC50: HEK 293 cells transiently co-transfected with pCMV tag4b-TGR5h and pCRE TA-Luciferase reporter, overnight incubation; for hTGR5 % trans: HEK 293 luciferase reporter, percentage of the 10 μM LCA value. How it is done:
(§1) TGR5/CRE Luciferase Assay
(§2) In the following tables TGR5 activation by compounds and subsequent increase in intracellular cAMP were evaluated using a luciferase reporter gene assay. Human embryonic kidney (HEK) 293 cells were transiently co-transfected with pCMV tag4b-TGR5 h (to follow hTGR5 activation) or pCMV AC6-TGR5m (to follow mTGR5 activation) expression plasmids and the pCRE TA-Luciferase reporter plasmid using the JET PEI reagent (Polyplus transfection). Transfected cells were seeded in 96-well plates and incubated overnight with the test compounds at increasing concentrations tested in duplicate. Lithocolic acid (LCA) at 10 μM was used as a positive reference compound. The cAMP-dependent luciferase expression was followed using the BrightGlo reagent according to the manufacturer (Promega) instructions. Luminescence was read with a Mithras plate reader (Berthold). […] Concentration-response curves were fitted by a nonlinear regression analysis to a 4 parameter logistic equation.
(In general: In a reporter assay the amount or activity of a reporter protein is the signal.)

A further assay addresses mTGR5 (Mus musculus (Mouse), UniProt Q80SS6). In words: TGR5/CRE Luciferase Assay (mTGR5). In kind it is cell-based. The following applies: for EC50: HEK 293 cells transiently co-transfected with pCMV AC6-TGR5m and pCRE TA-Luciferase reporter, overnight incubation; for mTGR5 % trans: HEK 293 luciferase reporter, percentage of the 10 μM LCA value. The protocol:
as §1, §2

Sequence of mTGR5 (Q80SS6 whole entry): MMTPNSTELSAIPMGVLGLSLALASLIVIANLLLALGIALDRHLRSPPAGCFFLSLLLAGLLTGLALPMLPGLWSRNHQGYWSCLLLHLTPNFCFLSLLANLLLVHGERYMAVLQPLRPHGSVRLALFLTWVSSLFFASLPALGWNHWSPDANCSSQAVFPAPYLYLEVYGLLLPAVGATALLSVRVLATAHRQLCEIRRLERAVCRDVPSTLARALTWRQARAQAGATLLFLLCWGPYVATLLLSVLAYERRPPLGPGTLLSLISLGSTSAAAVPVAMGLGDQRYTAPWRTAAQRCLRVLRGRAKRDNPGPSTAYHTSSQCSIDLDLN
Sequence of hTGR5 (Q8TDU6 whole entry): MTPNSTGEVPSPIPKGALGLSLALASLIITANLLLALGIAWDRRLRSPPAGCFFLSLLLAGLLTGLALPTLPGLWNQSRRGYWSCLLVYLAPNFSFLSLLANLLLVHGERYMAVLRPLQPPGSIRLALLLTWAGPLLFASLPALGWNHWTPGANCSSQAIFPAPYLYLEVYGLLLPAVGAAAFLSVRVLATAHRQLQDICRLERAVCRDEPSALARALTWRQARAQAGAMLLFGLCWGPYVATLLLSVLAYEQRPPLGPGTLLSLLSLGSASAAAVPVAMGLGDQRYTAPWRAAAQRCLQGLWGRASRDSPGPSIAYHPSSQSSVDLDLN

As to “[2-[2,6-Difluoro-4-(2-methoxy-polyethyleneglycoxy)-benzylsulfanyl]-3-(4-fluoro-3-methoxy-phenyl)-3H-imidazol-4-yl]-(3,4-dimethoxy-phenyl)-methyl-amine [Example 23]”, at hTGR5, the response was half-maximal at 330 nM (EC50) and the hTGR5 % trans is on record as 103%. In addition, at mTGR5, the EC50 is 26 nM and the mTGR5 % trans turned out to be 108%.
At hTGR5, “[2-[2,6-Difluoro-4-(2-methoxy-polyethyleneglycoxy)-benzylsulfanyl]-3-(4-fluoro-phenyl)-3H-imidazol-4-yl]-(3,4-dimethoxy-phenyl)-methyl-amine [Example 9]” came in with a 50% effective concentration (EC50) of 160 nM and a hTGR5 % trans of 85%. On mTGR5, the EC50 was determined as 18 nM and the mTGR5 % trans turned out to be 98%.
On to “[2-[2,6-Difluoro-4-(2-methoxy-polyethyleneglycoxy)-benzylsulfanyl]-3-(4-fluoro-phenyl)-3H-imidazol-4-yl]-(3,4-dimethoxy-phenyl)-methyl-amine [Example 22]”, for which, at hTGR5, the EC50 worked out at 580 nM and the hTGR5 % trans is recorded as 60%. At mTGR5, this substance showed an EC50 of 29 nM and a mTGR5 % trans of 85%.
The corresponding values for “[2-[2,6-Difluoro-4-(2-methoxy-polyethyleneglycoxy)-benzylsulfanyl]-3-(4-fluorophenyl)-3H-imidazol-4-yl]-(3,4-dimethoxy-phenyl)-methyl-amine [Example 24]” are 1200 nM, 71%, 68 nM and 126%.

As usually defined, the EC50 is the concentration needed to bring the measured effect to its halfway point.
